Data set [1] concerns the target T1, norepinephrine transporter (NET) (Homo sapiens, UniProt P23975).
T1 construct: expressed in transfected cells; host or cells: HEK293
As to the kind of experiment: Fluorescent substrate uptake inhibition, NET. In kind it is cell-based. Conditions: for inhibition at 10 µM: HEK293 cells expressing NET.

The target of data set [2] is T2, vesicular monoamine transporter 2 (VMAT2) (Homo sapiens, UniProt Q05940).
T2 construct: expressed in transfected cells
As to the kind of experiment: Fluorescent substrate uptake inhibition, VMAT2. In kind it is cell-based. As to conditions: for inhibition at 10 µM: transfected cells.

Data set [3] deals with T3, serotonin transporter (SERT) (Homo sapiens, UniProt P31645).
T3 construct: expressed in transfected cells; host or cells: HEK293
T3 sequence (P31645 whole entry, species assumed): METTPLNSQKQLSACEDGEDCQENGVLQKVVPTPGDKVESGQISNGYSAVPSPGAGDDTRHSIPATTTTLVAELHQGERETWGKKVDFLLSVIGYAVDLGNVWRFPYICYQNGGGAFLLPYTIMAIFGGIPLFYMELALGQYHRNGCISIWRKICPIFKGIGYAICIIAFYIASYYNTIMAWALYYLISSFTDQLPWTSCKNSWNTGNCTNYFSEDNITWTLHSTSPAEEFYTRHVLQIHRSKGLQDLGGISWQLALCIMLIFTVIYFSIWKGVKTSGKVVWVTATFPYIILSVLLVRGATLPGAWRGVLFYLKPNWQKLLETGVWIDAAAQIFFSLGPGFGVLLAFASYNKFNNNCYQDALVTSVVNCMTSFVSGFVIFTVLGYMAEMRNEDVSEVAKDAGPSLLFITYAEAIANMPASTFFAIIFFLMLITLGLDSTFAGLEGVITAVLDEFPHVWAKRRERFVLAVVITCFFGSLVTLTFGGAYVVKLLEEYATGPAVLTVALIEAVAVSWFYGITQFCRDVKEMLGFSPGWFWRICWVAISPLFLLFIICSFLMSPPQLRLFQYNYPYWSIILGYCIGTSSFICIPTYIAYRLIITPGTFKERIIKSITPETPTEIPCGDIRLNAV
As to the kind of experiment: Fluorescent substrate uptake inhibition, SERT. Conditions: for inhibition at 10 µM: HEK293 cells expressing SERT. In kind it is cell-based.

Data set [4] can be described thus: RLM stability (High Activity). Conditions: for half-life at 1 μM / microsomal CLint at 1 μM: male, Sprague Dawley, rat, liver microsomes, pH 7.4, Condition 2 (High Activity), 1.0 mg protein/mL. The class given is in vitro ADME, Sprague Dawley rats. The procedure:
RLM Stability (High Activity). Pooled RLM from male Sprague Dawley rats (XenoTech R1000, lot #1910100) were used. Microsomal incubations were carried out in 96-well plates in 5 aliquots of 40 μL each (one for each time point). Liver microsomal incubation medium consisted of PBS (100 mM, pH 7.4), MgCl2 (3.3 mM), NADPH (3 mM), glucose-6-phosphate (5.3 mM), and glucose-6-phosphate dehydrogenase (0.67 units/mL), with 1.0 mg of liver microsomal protein per mL. Control incubations were performed by replacing the NADPH-cofactor system with PBS. Test compounds (1 μM, final solvent concentration 1.6%) were incubated with microsomes at 37° C., shaking at 100 rpm. Incubations were performed in duplicate. Five time points over 60 minutes were analyzed. The reactions were stopped by adding 9 volumes of 90% acetonitrile-water to incubation aliquots, followed by protein sedimentation by centrifugation at 5500 rpm for 3 minutes. Supernatants were analyzed for parent compound remaining using a fit-for-purpose liquid chromatography-tandem mass spectrometry (LC-MS/MS) method, with authentic samples of each analyte used for identity confirmation.
Data Analysis. The elimination constant (kel), half-life (t1/2) and intrinsic clearance (Clint) were determined in a plot of […] versus time, using linear regression analysis.

Data set [5] can be described thus: MLM stability (High Activity). The class given is in vitro ADME, BALB/c mice. Conditions: male, BALB/c, mouse, liver microsomes, pH 7.4, Condition 2 (High Activity), 1.0 mg protein/mL. A digest of the protocol: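 Pooled male BALB/c mouse liver microsomes (1.0 mg/mL) in 100 mM PBS pH 7.4 with NADPH-regenerating system; compound 1 μM, 37 °C, five time points over 60 min, duplicate; NADPH-free controls. Parent remaining by LC-MS/MS; kel, t1/2 and Clint from linear regression of ln(AUC) versus time.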

The test system of data set [6] is monoamine transporters, MATs (SERT, NET, DAT, VMAT2). As to the kind of experiment: Monoamine uptake inhibition, monoamine transporters collectively. In kind it is cell-based. Conditions: in words. Here is the method:
The ability of the compounds of the present invention to inhibit uptake of monoamines by the serotonin transporter (SERT), norepinephrine transporter (NET), dopamine transporter (DAT), and vesicular monoamine transporter 2 (VMAT2) (collectively monoamine transporters, MATs) was measured using fluorescent substrate uptake assays in transfected cells (Table 14). The binding affinities of select compounds were also determined in radioligand displacement assays at SERT, NET, and/or DAT (Table 14).
Uptake Inhibition. The ability of test compounds to block monoamine uptake by SERT, NET, DAT, and VMAT2 was determined using the Neurotransmitter Transporter Uptake Assay Kit manufactured by Molecular Devices (Cat #R8173). Briefly, stably transfected cells expressing the MAT of interest (HEK293 cells for SERT and NET; CHO cells for DAT) were grown and plated into 384-well plates at a concentration of 20,000 cells per well. Plates were then incubated for 16-20 h at 37° C. and 5% CO2. The medium was then aspirated and replaced with 25 μL of assay buffer (20 mM HEPES in HBSS, containing 0.1% BSA) containing the test compounds at the appropriate concentrations. Plates were then centrifuged at 300 rpm for 15 s and then incubated at 37° C. for 30 minutes. At this time, 25 μL of the proprietary fluorescent dye solution was added, the plates were incubated at 37° C. for 60 minutes, and then fluorescence was quantified on a plate reader (excitation wavelength=440 nm, emission wavelength=520 nm). The proprietary dye solution contains a mixture of 1) a fluorescent dye that mimics the endogenous substrates of MATs and is thereby actively transported to the intracellular compartment in the absence of an inhibitor and 2) a masking dye that inhibits the fluorescence of dye 1 in the extracellular compartment. Therefore, the overall fluorescence of the system increases as the fluorescent dye is transported into the cells.

T2 sequence (Q05940 whole entry, species assumed): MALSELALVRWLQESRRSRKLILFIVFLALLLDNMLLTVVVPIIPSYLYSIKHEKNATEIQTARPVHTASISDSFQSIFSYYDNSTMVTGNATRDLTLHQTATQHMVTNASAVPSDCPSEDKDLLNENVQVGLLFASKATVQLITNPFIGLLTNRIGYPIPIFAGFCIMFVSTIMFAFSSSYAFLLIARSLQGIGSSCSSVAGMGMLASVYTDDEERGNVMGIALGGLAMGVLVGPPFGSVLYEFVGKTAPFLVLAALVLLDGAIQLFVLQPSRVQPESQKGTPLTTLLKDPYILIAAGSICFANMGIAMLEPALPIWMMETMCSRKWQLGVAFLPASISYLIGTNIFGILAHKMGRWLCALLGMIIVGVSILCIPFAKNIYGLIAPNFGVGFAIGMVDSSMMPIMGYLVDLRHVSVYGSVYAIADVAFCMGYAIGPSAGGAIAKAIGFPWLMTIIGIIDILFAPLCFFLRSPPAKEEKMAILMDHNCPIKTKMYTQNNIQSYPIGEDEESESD
T1 sequence (P23975 whole entry, species assumed): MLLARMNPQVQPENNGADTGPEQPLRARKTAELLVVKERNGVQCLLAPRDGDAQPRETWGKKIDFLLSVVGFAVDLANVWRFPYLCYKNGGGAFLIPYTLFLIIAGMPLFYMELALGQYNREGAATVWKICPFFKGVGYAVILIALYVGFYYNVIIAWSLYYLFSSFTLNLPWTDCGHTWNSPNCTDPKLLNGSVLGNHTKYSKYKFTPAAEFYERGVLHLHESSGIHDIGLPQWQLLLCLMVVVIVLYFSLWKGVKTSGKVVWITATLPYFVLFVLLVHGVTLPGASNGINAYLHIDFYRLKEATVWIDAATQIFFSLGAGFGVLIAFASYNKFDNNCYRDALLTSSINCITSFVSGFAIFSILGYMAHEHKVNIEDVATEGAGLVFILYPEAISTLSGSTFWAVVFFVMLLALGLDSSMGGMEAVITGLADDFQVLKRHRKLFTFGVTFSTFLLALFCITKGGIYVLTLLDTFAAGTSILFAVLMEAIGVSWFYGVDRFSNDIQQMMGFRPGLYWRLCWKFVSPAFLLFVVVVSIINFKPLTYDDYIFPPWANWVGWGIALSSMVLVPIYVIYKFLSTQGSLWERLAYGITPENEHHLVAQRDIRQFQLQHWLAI

For `Cc1ccccc1[C@]1(N)CCCCC1=O` [Compound 114R, (R)-2-amino-2-(o-tolyl)cyclohexan-1-one], the inhibition at 10 µM was 7.7% in data set [1], -14% in data set [2] and 23.4% in data set [3].
Turning to `O=C1CCCC[C@@]1(c1ccccc1)N1CCC1` [Compound 84S, (S)-2-(azetidin-1-yl)-2-phenyl-cyclohexan-1-one], the half-life at 1 μM amounted to 30.3 min in data set [4] and 19.3 min in data set [5]. The figures for the microsomal CLint at 1 μM in data set [4] and in data set [5] were 23 µL/min/mg and 36 µL/min/mg, respectively. Also, the IC50 is 29.7 µM in data set [1], greater than 100 µM in data set [2] and 0.94 µM in data set [3]. The results for the inhibition at 10 µM in data set [1], in data set [2] and in data set [3] were 34.9%, 10.9% and 91.9%, respectively.
Regarding `CN[C@]1(c2cccc(F)c2)CCCCC1=O` [Compound 19S, (5)-2-(3-fluorophenyl)-2-(methylamino)cyclohexan-1-one], the half-life at 1 μM in data set [4] turned out to be 18.8 min; in data set [5], 60.5 min. Further, the figures for the microsomal CLint at 1 μM in data set [4] and in data set [5] were 37 µL/min/mg and 11 µL/min/mg, respectively. For the same molecule, the inhibition at 10 µM in data set [1] was 10.3%; in data set [2] it was -0.87%; in data set [3], 20.6%. In addition, the “selectivity for NMDAR (over MATs)” value in data set [6] is reported as “greater selectivity for NMDAR”.
As to `O=C1CCCCC1(c1ccccc1)N1CCCC1` (racemic) [Compound 27rac, 2-phenyl-2-(pyrrolidin-1-yl)cyclohexan-1-one], in data set [5], the half-life at 1 μM was determined as 35 min and the microsomal CLint at 1 μM was 20 µL/min/mg. In data set [1], the IC50 turned out to be 4.9 µM and the inhibition at 10 µM stood at 40.8%. In data set [2], the IC50 was determined as 11.2 µM and the inhibition at 10 µM came out at 60.4%. In addition, in data set [3], half-maximal inhibition (IC50) was put at 0.45 µM and the inhibition at 10 µM amounted to 88.6%.
As for `COCCNC1(c2ccccc2)CCCCC1=O` (racemic) [Compound 29rac, 2-((2-methoxyethyl)amino)-2-phenylcyclohexan-1-one], the results for the half-life at 1 μM in data set [4] and in data set [5] were 17.6 min and 17 min, respectively. For the same molecule, the microsomal CLint at 1 μM in data set [4] came out at 39 µL/min/mg; in data set [5], 41 µL/min/mg. Moreover, in data set [6], the “selectivity for NMDAR (over MATs)” value is given as “greater selectivity for NMDAR”.
Take `CNC1(c2ccccc2Cl)CCCCC1=O` (racemic) [rac-ketamine, racemic ketamine, reference compound]: in data set [4], the half-life at 1 μM stood at 4.6 min and the microsomal CLint at 1 μM amounted to 151 µL/min/mg. In data set [5], this molecule came in with a half-life at 1 μM of 9.3 min and a microsomal CLint at 1 μM of 75 µL/min/mg.
On to `[2H]C([2H])([2H])N[C@@]1(c2ccccc2)CCCCC1=O` [Compound 88R, (R)-2-((methyl-d3)amino)-2-phenylcyclohexan-1-one], for which, in data set [4] (High Activity), the “metabolic stability compared to non-deuterated counterparts 14R and 14S” value is “increased metabolic stability”. The half-life at 1 μM came out at 39.6 min in data set [4] and 106 min in data set [5]. For the same molecule, the values for the microsomal CLint at 1 μM in data set [4] and in data set [5] were 18 µL/min/mg and 7 µL/min/mg, respectively. Besides, the values for the inhibition at 10 µM in data set [1], in data set [2] and in data set [3] were 10.6%, 20.2% and 25.9%, respectively. Besides, in data set [6], the “selectivity for NMDAR (over MATs)” value was “greater selectivity for NMDAR”.
For the molecule `O=C1CCCC[C@]1(c1ccccc1)N1CCC1` [Compound 84R, (R)-2-(azetidin-1-yl)-2-phenyl-cyclohexan-1-one], the half-life at 1 μM worked out at 21.8 min in data set [4] and 22.7 min in data set [5]. The microsomal CLint at 1 μM turned out to be 32 µL/min/mg in data set [4] and 30 µL/min/mg in data set [5]. Moreover, the IC50 in data set [1] turned out to be 15.4 µM; in data set [2], 98.2 µM; in data set [3], 0.8 µM. The inhibition at 10 µM in data set [1] stood at 29.1%; in data set [2], 14.1%; in data set [3] it was 75.2%.
In the case of `N[C@]1(c2ccccc2)CCCCC1=O` [Compound 11S, (S)-2-amino-2-phenyl-cyclohexan-1-one], the values for the half-life at 1 μM in data set [4] and in data set [5] were 109 min and 217 min, respectively. The microsomal CLint at 1 μM in data set [4] was 6 µL/min/mg; in data set [5] it was 3 µL/min/mg. The results for the inhibition at 10 µM in data set [1], in data set [2] and in data set [3] were 14.8%, -17.4% and -2.6%, respectively. The “selectivity for NMDAR (over MATs)” value in data set [6] was “greater selectivity for NMDAR”.
Take `CN[C@@]1(c2ccccc2)CCCCC1=O` [Compound 14R, (R)-2-(methylamino)-2-phenylcyclohexan-1-one]: the half-life at 1 μM was 18.2 min in data set [4] and 197 min in data set [5]. Also, the microsomal CLint at 1 μM in data set [4] came to 38 µL/min/mg; in data set [5], 4 µL/min/mg. The inhibition at 10 µM in data set [1] came to 1.7%; in data set [2], 6.2%; in data set [3] it was 19.3%. Also, the IC50 in data set [3] turned out to be 45.5 µM. For the same molecule, the “selectivity for NMDAR (over MATs)” value in data set [6] is reported as “greater selectivity for NMDAR”.
Take `Cc1ccccc1[C@@]1(N)CCCCC1=O` [Compound 114S, (S)-2-amino-2-(o-tolyl)cyclohexan-1-one]: the inhibition at 10 µM in data set [1] is 10.4%; in data set [2] it was -15.9%; in data set [3], -4%. In addition, in data set [6], the “selectivity for NMDAR (over MATs)” value is “greater selectivity for NMDAR”.
As to `CN[C@]1(c2ccccc2)CCCCC1=O` [Compound 14S, (S)-2-(methylamino)-2-phenylcyclohexan-1-one], the half-life at 1 μM worked out at 31.6 min in data set [4] and 263 min in data set [5]. In addition, the microsomal CLint at 1 μM in data set [4] was 22 µL/min/mg; in data set [5], 3 µL/min/mg. Further, the inhibition at 10 µM turned out to be 1.8% in data set [1], 7.4% in data set [2] and 17% in data set [3]. Besides, the IC50 in data set [3] was found to be 30.6 µM.
Take `N[C@@]1(c2ccccc2)CCCCC1=O` [Compound 11R, (R)-2-amino-2-phenyl-cyclohexan-1-one]: the half-life at 1 μM amounted to 103 min in data set [4] and 169 min in data set [5]. In addition, the microsomal CLint at 1 μM in data set [4] turned out to be 7 µL/min/mg; in data set [5], 4 µL/min/mg. Moreover, the inhibition at 10 µM stood at 10.4% in data set [1], 14.4% in data set [2] and 0.19% in data set [3].

(Values after patent US11344510B2, “Arylcyclohexylamine derivatives and their use in the treatment of psychiatric disorders” (Gilgamesh Pharmaceuticals, Inc., priority 2019, dated 2022).)
